In patent US20040102423A1, “Spironolactone and angiotensin II antagonist combination therapy for treatment of congestive heart failure” (G.D. Searle & Co., priority 1995, published 2004):

Legend:
[1] = molecular target: angiotensin II AT1 receptor; assay: Assay A: Angiotensin II binding activity, rat uterine membrane preparation, 125I-AII displacement
Experimental: Assay A: Antiotensin II Binding Activity
Compounds of the invention were tested for ability to bind to the smooth muscle angiotensin II receptor using a rat uterine membrane preparation. […] Rat uterine membranes were prepared from fresh tissue. All procedures were carried out at 4° C. Uteri were stripped of fat and homogenized in phosphate-buffered saline at pH 7.4 containing 5 mM EDTA. The homogenate was centrifuged at 1500×g for 20 min., and the supernatant was recentrifuged at 100,000×g for 60 min. The pellet was resuspended in buffer consisting of 2 mM EDTA and 50 mM Tris-HCl (pH 7.5) to a final protein concentration of 4 mg/ml. […] The reaction was initiated by the addition of membrane protein and the mixture was incubated at 25° C. for 60 min. The incubation was terminated with ice-cold 50 mM Tris-HCl (pH 7.5) and the mixture was filtered to separate membrane-bound labelled peptide from the free ligand. The incubation tube and filter were washed with ice-cold buffer. Filters were assayed for radioactivity in a Micromedic gamma counter. Nonspecific binding was defined as binding in the presence of 10 μM of unlabelled AII. Specific binding was calculated as total binding minus nonspecific binding. […] Binding data were analyzed by a nonlinear least-squares curve fitting program.

rabbit aortic rings = assay: Assay B: In vitro vascular smooth muscle response for AII (antagonist activity, pA2); assay type: cell-based; conditions: for Kb: Oryctolagus cuniculus, two values in a cell = two determinations
Experimental: Assay B: In Vitro Vascular Smooth Muscle-Response for AII
The compounds of the invention were tested for antagonist activity in rabbit aortic rings. Male New Zealand white rabbits (2-2.5 kg) were sacrificed using an overdose of pentobarbital and exsanguinated via the carotid arteries. The thoracic aorta was removed, cleaned of adherent fat and connective tissue and then cut into 3-mm ring segments. The endothelium was removed from the rings by gently sliding a rolled-up piece of filter paper into the vessel lumen. The rings were then mounted in a water-jacketed tissue bath, maintained at 37° C., between moveable and fixed ends of a stainless steel wire with the moveable end attached to an FT03 Grass transducer coupled to a Model 7D Grass Polygraph for recording isometric force responses. The bath was filled with 20 ml of oxygenated (95% oxygen/5% carbon dioxide) Krebs solution of the following composition (mM): 130 NaCl, 15 NaHCO3, […], 1.2 NaH2PO4, 1.2 MgSO4, 2.5 CaCl2, and 11.4 glucose. The preparations were equilibrated for one hour before approximately one gram of passive tension was placed on the rings. Angiotensin II concentration-response curves were then recorded (3×10^−10 to 1×10^−5 M). Each concentration of AII was allowed to elicit its maximal contraction, and then AII was washed out repeatedly for 30 minutes before rechallenging with a higher concentration of AII. Aorta rings were exposed to the test antagonist at 10^−5 M for 5 minutes before challenging with AII. Adjacent segments of the same aorta ring were used for all concentration-response curves in the presence or absence of the test antagonist. The effectiveness of the test compound was expressed in terms of pA2 values and were calculated according to H. O. Schild [Br. J. Pharmacol. Chemother., 2, 189-206 (1947)]. The pA2 value is […] which increases the EC50 value for AII by a factor of two. Each test antagonist was evaluated in aorta rings from two rabbits.

| SMILES | IC50 [1] | Kb (rabbit aortic rings) | Assay B pA2 (result given as symbol) (rabbit aortic rings) |
| --- | --- | --- | --- |
| CCCCc1nc(Cl)nn1Cc1ccc(-c2ccccc2-c2nnn[nH]2)cc1 [Compound 18] | 0.97 µM | 0.724 µM |  |
| CCCCc1nc(Cl)n(Cc2ccc(-c3ccccc3C(=O)O)cc2)n1 [Compound 19] | 12 µM | 6.61 µM |  |
| CCCCc1nc(C(F)(F)CCC)n(Cc2ccc(-c3ccccc3-c3nnn[nH]3)cc2)n1 [Compound 22] | 0.46 µM | 0.251 µM |  |
| CCCCc1nc(CCC)nn1Cc1ccc(-c2ccccc2-c2nnn[nH]2)cc1 [Compound 25] | 0.48 µM | 0.158 µM |  |
| CCCCc1nc(C(OC)OC)nn1Cc1ccc(-c2ccccc2-c2nnn[nH]2)cc1 [Compound 35] | 0.041 µM | 0.0562 µM |  |
| CCCCc1nc(CCc2ccccc2)n(Cc2ccc(-c3ccccc3-c3nnn[nH]3)cc2)n1 [Compound 36] | 1.4 µM | 1.2 µM |  |
| CCCCc1nc(CCc2ccccc2)nn1Cc1ccc(-c2ccccc2-c2nnn[nH]2)cc1 [Compound 37] | 0.34 µM | 0.126 µM |  |
| CCCCc1nc(CNC(=O)OC(C)(C)C)nn1Cc1ccc(-c2ccccc2-c2nnn[nH]2)cc1 [Compound 46] | 0.11 µM | 0.158 µM |  |
| CCCCc1nc(CC(OCC)OCC)nn1Cc1ccc(-c2ccccc2-c2nnn[nH]2)cc1 [Compound 49] | 0.12 µM | 0.0871 µM |  |
| CCCCc1nc(CC)nn1Cc1ccc(-c2ccccc2-c2nnn[nH]2)cc1 [Compound 50] | 0.054 µM | 0.0195 µM |  |
| CCCCc1nc(CNC(=O)CCC(NC(C)=O)C(=O)OC(C)(C)C)nn1Cc1ccc(-c2ccccc2-c2nnn[nH]2)cc1 (stereo not drawn) [Compound 52] | 0.1 µM | 0.00724 µM |  |
| CCCCc1nc(CCC2CCCCC2)n(Cc2ccc(-c3ccccc3-c3nnn[nH]3)cc2)n1 [Compound 53] | 0.065 µM | 0.0275 µM |  |
| CCCCc1nc(CCC2CCCCC2)nn1Cc1ccc(-c2ccccc2-c2nnn[nH]2)cc1 [Compound 54] | 3.1 µM | 0.955 µM |  |
| CCCCc1nc(CCCO)n(Cc2ccc(-c3ccccc3-c3nnn[nH]3)cc2)n1 [Compound 57] | 2.3 µM | 1 µM |  |
| CCCCc1nc(C(F)F)nn1Cc1ccc(-c2ccccc2-c2nnn[nH]2)cc1 [Compound 58] | 0.14 µM | 0.355 µM |  |
| CCCCc1nc(C(F)(F)Cc2ccccc2)nn1Cc1ccc(-c2ccccc2-c2nnn[nH]2)cc1 [Compound 62] | 0.026 µM | 0.00204 µM |  |
| CCCCc1nc(C(=O)O)nn1Cc1ccc(-c2ccccc2-c2nnn[nH]2)cc1 [Compound 63] | 0.061 µM | 0.017 µM |  |

| SMILES | IC50 [1] | Kb (rabbit aortic rings) | Assay B pA2 (result given as symbol) (rabbit aortic rings) |
| --- | --- | --- | --- |
| CCCCc1ncnn1Cc1ccc(-c2ccccc2-c2nnn[nH]2)cc1 [Compound 64] | 0.054 µM | 0.1 µM |  |
| CCCCc1ncn(Cc2ccc(-c3ccccc3-c3nnn[nH]3)cc2)n1 [Compound 65] | 0.023 µM | 0.0141 µM |  |
| CCCCc1nc(C23CC4CC(CC(C4)C2)C3)nn1Cc1ccc(-c2ccccc2-c2nnn[nH]2)cc1 [Compound 67] | 3.1 µM | 1.32 µM |  |
| CCCCc1nc(CF)n(Cc2ccc(-c3ccccc3-c3nnn[nH]3)cc2)n1 [Compound 71] | 12 µM |  | * (Antagonist Activity not observed up to 10 μM of test compound.) |
| CCCCc1nc(CC23CC4CC(CC(C4)C2)C3)n(Cc2ccc(-c3ccccc3-c3nnn[nH]3)cc2)n1 [Compound 72] | 0.083 µM | 0.776 µM |  |
| CCCCc1nc(CC23CC4CC(CC(C4)C2)C3)nn1Cc1ccc(-c2ccccc2-c2nnn[nH]2)cc1 [Compound 73] | 0.79 µM | 0.0224 µM |  |
| CCCCc1nc(C2CCCCC2)n(Cc2ccc(-c3ccccc3-c3nnn[nH]3)cc2)n1 [Compound 76] | 5.4 µM | 3.02 µM |  |
| CCCCc1nc(C2CCCCC2)nn1Cc1ccc(-c2ccccc2-c2nnn[nH]2)cc1 [Compound 77] | 15 µM | 1.7 µM |  |
| CCCCc1nc(CCCNC(=O)OC(C)(C)C)n(Cc2ccc(-c3ccccc3-c3nnn[nH]3)cc2)n1 [Compound 78] | 0.101 µM | 0.1 µM |  |
| CCCCc1nc(C(F)(F)C(F)(F)F)nn1Cc1ccc(-c2ccccc2-c2nnn[nH]2)cc1 [Compound 80] | 0.025 µM | 0.00794 µM |  |
| CCCCc1nc(CC)n(Cc2ccc(-c3ccccc3C(=O)O)cc2)n1 [Compound 87] | 0.091 µM | 0.0158 µM |  |
| CCCCc1nc(C)n(Cc2ccc(-c3ccccc3C(=O)O)cc2)n1 [Compound 88] | 0.05 µM | 0.02 µM |  |
| CCCCc1nn(CC(=O)C23CC4CC(CC(C4)C2)C3)c(=O)n1Cc1ccc(-c2ccccc2-c2nn[nH]n2)cc1 [Compound 91] | 0.03 µM | 0.00251 µM |  |
| CCCCc1nn(CCCc2ccccc2)c(=O)n1Cc1ccc(-c2ccccc2-c2nn[nH]n2)cc1 [Compound 92] | 0.035 µM | 0.0126 µM |  |
| CCCCc1nn(CC(=O)OC(C)(C)C)c(=O)n1Cc1ccc(-c2ccccc2-c2nn[nH]n2)cc1 [Compound 95] | 0.066 µM | 0.00631 µM |  |
| CCCCc1nn(CC(=O)OCC)c(=O)n1Cc1ccc(-c2ccccc2-c2nn[nH]n2)cc1 [Compound 97] | 0.28 µM | 0.02 µM |  |

Compounds with a lower IC50 [1], results first:

| IC50 [1] | SMILES | Kb (rabbit aortic rings) | Assay B pA2 (result given as symbol) (rabbit aortic rings) |
| --- | --- | --- | --- |
| 0.006 µM | CCCCc1nc(CCCC)n(Cc2ccc(-c3ccccc3C(=O)OC)cc2)n1 [Compound 12] | 0.00219 µM |  |
| 0.017 µM | CCCCc1nc(CCCC)n(Cc2ccc(-c3ccccc3C(=O)O)cc2)n1 [Compound 13] | 0.002 µM |  |
| 0.0072 µM | CCCCc1nc(CCCC)n(Cc2ccc(-c3ccccc3-c3nnn[nH]3)cc2)n1 [Compound 14] | 0.00145 µM |  |
| 0.016 µM | CCCCc1nc(CCCC)n(Cc2ccc(-c3ccccc3C(=O)NN)cc2)n1 [Compound 15] | 0.0049 µM |  |
| 0.0064 µM | CCCCc1nc(CCCC)n(Cc2ccc(-c3ccccc3C(=O)NNS(=O)(=O)C(F)(F)F)cc2)n1 [Compound 16] | 0.00112 µM |  |
| 0.004 µM | CCCCc1nc(Cl)nn1Cc1ccc(-c2ccccc2C(=O)O)cc1 [Compound 17] | 0.00229 µM |  |
| 0.01 µM | CCCCCc1nc(CCCCC)n(Cc2ccc(-c3ccccc3-c3nnn[nH]3)cc2)n1 [Compound 24] | 0.0275 µM |  |
| 0.01 µM | CCCCCCCCc1nc(CCCC)nn1Cc1ccc(-c2ccccc2-c2nnn[nH]2)cc1 [Compound 39] | 0.0132 µM |  |
| 0.0044 µM | CCCCc1nc(CNC(=O)OC(C)(C)C)n(Cc2ccc(-c3ccccc3-c3nnn[nH]3)cc2)n1 [Compound 45] | 0.00389 µM |  |
| 0.021 µM | CCCCc1nc(CN)n(Cc2ccc(-c3ccccc3-c3nnn[nH]3)cc2)n1 [Compound 47] | 0.0141 µM |  |
| 0.0087 µM | CCCCc1nc(CC)n(Cc2ccc(-c3ccccc3-c3nnn[nH]3)cc2)n1 [Compound 51] | 0.00407 µM |  |
| 0.0065 µM | CCCCc1nc(CCC(=O)O)nn1Cc1ccc(-c2ccccc2-c2nnn[nH]2)cc1 [Compound 74] | 0.00275 µM |  |
| 0.0049 µM | CCCCc1nc(CCCNC(=O)OC(C)(C)C)nn1Cc1ccc(-c2ccccc2-c2nnn[nH]2)cc1 [Compound 79] | 0.000631 µM |  |
| 0.0079 µM | CCCCc1nc(CCCN)n(Cc2ccc(-c3ccccc3-c3nnn[nH]3)cc2)n1 [Compound 82] | 0.00316 µM |  |
| 0.0036 µM | CCCCc1nc(CCCN)nn1Cc1ccc(-c2ccccc2-c2nnn[nH]2)cc1 [Compound 83] | 0.00501 µM |  |
| 0.016 µM | CCCCc1nc(CC2CCCCC2)n(Cc2ccc(-c3ccccc3-c3nnn[nH]3)cc2)n1 [Compound 84] | 0.0794 µM |  |
| 0.0087 µM | CCCCc1nc(CC2CCCCC2)nn1Cc1ccc(-c2ccccc2-c2nnn[nH]2)cc1 [Compound 85] | 0.00126 µM |  |
| 0.009 µM | CCCCc1nc(CC)nn1Cc1ccc(-c2ccccc2C(=O)O)cc1 [Compound 86] | 0.0158 µM |  |
| 0.018 µM | CCCCc1nn(CCCC)c(=O)n1Cc1ccc(-c2ccccc2C(=O)O)cc1 [Compound 89] | 0.0126 µM |  |
| 0.0056 µM | CCCCc1nn(CCCC)c(=O)n1Cc1ccc(-c2ccccc2-c2nnn[nH]2)cc1 [Compound 90] | 0.001 µM |  |
| 0.021 µM | CCCCCCn1nc(CCCC)n(Cc2ccc(-c3ccccc3-c3nn[nH]n3)cc2)c1=O [Compound 96] | 0.01 µM |  |
